“And” between values parts separate entries of the source, which are not always exact repeats. Identical values can stand only once.
Columns and labels:
Assay in all cases: Disruption of BRAF RBD interaction with Ras (FRET / MOA assay, with Cyclophilin A)
Type in all cases: biochemical
[1] = molecular target: KRAS G12C (Homo sapiens, UniProt P01116+P62937, G12C); conditions: KRAS G12C; read-out: KRAS G12C FRET data IC50
In short: (§1)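 Measured via TR-FRET after 3 h at 25 °C with compound (30 μM top, threefold serial steps, ten concentrations) plus K-Ras, Cyclophilin A and BRAF RBD, followed by 1.5 h with anti-His europium (10 nM) and anti-GST allophycocyanin (50 nM). Signal loss versus DMSO gave IC50.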

[2] = molecular target: KRAS G12D (Homo sapiens, UniProt P01116+P62937, G12D); conditions: read-out: KRAS G12D FRET data, IC50
Sequence of KRAS G12D (P01116 1-169 isoform P01116-2 G12D limits assumed): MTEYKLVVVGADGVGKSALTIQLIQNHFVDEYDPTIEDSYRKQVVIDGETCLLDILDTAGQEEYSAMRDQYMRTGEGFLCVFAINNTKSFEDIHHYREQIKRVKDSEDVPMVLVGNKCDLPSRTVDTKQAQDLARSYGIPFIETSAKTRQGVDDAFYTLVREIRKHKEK
Sequence of KRAS G12D (P62937 whole entry): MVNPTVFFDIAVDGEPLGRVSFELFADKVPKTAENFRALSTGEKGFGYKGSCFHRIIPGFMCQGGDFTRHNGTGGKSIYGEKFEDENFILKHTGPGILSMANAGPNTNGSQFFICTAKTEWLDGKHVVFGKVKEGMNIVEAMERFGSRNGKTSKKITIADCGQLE
In short: as §1

[3] = molecular target: KRAS G12S (Homo sapiens, UniProt P01116+P62937, G12S); conditions: read-out: KRAS G12S FRET data, IC50
Sequence of KRAS G12S (P01116 1-169 isoform P01116-2 G12S limits assumed): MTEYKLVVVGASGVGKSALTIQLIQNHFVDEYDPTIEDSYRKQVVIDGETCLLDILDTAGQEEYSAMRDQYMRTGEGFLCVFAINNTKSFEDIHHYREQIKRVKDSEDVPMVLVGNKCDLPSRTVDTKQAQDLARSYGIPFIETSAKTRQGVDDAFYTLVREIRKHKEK
Sequence of KRAS G12S (P62937 whole entry): as the sequence (P62937 whole entry) above
In short: as §1

[4] = molecular target: KRAS G12V (Homo sapiens, UniProt P01116+P62937, G12V); conditions: KRAS G12V; read-out: KRAS G12V FRET data IC50
Sequence of KRAS G12V (P01116 1-169 isoform P01116-2 G12V limits assumed): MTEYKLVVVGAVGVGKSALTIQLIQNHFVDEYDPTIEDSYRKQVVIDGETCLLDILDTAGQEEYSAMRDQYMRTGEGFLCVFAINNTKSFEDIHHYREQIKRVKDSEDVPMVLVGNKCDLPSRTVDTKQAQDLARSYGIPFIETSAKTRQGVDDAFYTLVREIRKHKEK
Sequence of KRAS G12V (P62937 whole entry): as the sequence (P62937 whole entry) above
In short: as §1

[5] = molecular target: KRAS G13C (Homo sapiens, UniProt P01116+P62937, G13C); conditions: KRAS G13C; read-out: KRAS G13C FRET data IC50
Sequence of KRAS G13C (P01116 1-169 isoform P01116-2 G13C): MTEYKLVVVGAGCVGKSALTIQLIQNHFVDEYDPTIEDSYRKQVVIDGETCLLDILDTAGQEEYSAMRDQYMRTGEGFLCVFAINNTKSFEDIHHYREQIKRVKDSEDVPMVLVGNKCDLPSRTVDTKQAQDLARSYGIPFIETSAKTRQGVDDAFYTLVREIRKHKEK
Sequence of KRAS G13C (P62937 whole entry): as the sequence (P62937 whole entry) above
In short: as §1

[6] = molecular target: KRAS WT (Homo sapiens, UniProt P01116+P62937); conditions: KRAS WT; read-out: KRAS WT FRET data IC50
Sequence of KRAS WT (P01116 1-169 isoform P01116-2 limits assumed): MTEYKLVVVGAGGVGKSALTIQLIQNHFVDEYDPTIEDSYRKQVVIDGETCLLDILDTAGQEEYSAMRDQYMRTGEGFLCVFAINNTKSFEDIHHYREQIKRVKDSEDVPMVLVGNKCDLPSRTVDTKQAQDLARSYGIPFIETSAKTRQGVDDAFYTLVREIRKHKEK
Sequence of KRAS WT (P62937 whole entry): as the sequence (P62937 whole entry) above
In short: as §1

[7] = molecular target: KRAS Q61H (Homo sapiens, UniProt P01116+P62937, Q61H); conditions: KRAS Q61H; read-out: KRAS Q61H FRET data IC50
Sequence of KRAS Q61H (P01116 1-169 isoform P01116-2 Q61H limits assumed): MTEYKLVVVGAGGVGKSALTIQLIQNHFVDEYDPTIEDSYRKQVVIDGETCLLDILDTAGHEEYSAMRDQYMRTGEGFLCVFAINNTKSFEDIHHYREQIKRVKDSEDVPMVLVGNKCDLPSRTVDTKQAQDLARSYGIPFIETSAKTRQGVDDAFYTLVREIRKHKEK
Sequence of KRAS Q61H (P62937 whole entry): as the sequence (P62937 whole entry) above
In short: (§2)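 TR-FRET in 25 mM HEPES pH 7.3, 100 mM NaCl, 5 mM MgCl2, 0.1% BSA: 25 μM Cyclophilin A, 12.5 nM His6-Ras-GMPPNP, 50 nM GST-BRAF RBD with compound (10-point 3-fold series from 30 μM), 3 h at 25° C. Anti-His Eu/anti-GST APC added, 1.5 h more; IC50 from decreased FRET ratio versus DMSO.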

[8] = molecular target: NRAS Q61K (Homo sapiens, UniProt P01111+P62937, Q61K); conditions: NRAS Q61K; read-out: NRAS Q61K FRET data IC50
Sequence of NRAS Q61K (P01111 whole entry Q61K): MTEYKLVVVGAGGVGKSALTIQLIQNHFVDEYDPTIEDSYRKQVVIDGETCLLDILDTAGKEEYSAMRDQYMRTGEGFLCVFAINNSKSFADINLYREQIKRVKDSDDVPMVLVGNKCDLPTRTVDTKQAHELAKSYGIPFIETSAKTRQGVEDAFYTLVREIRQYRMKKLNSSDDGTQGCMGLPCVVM
Sequence of NRAS Q61K (P62937 whole entry): as the sequence (P62937 whole entry) above
In short: as §2

[9] = molecular target: NRAS Q61R (Homo sapiens, UniProt P01111+P62937, Q61R); conditions: NRAS Q61R; read-out: NRAS Q61R FRET data IC50
Sequence of NRAS Q61R (P01111 whole entry Q61R): as the sequence (P01111 whole entry Q61K) above, with K61R counted along it
Sequence of NRAS Q61R (P62937 whole entry): as the sequence (P62937 whole entry) above
In short: as §2

[10] = molecular target: KRAS G13D (Homo sapiens, UniProt P01116+P62937, G13D); conditions: KRAS G13D; read-out: KRAS G13D FRET data IC50
Sequence of KRAS G13D (P01116 1-169 isoform P01116-2 G13D limits assumed): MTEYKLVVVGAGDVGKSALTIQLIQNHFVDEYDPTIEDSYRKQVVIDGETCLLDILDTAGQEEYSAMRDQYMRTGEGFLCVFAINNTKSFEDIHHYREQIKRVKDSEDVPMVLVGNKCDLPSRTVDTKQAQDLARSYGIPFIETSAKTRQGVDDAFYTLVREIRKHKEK
Sequence of KRAS G13D (P62937 whole entry): as the sequence (P62937 whole entry) above
In short: as §1

[11] = molecular target: NRAS G12C (Homo sapiens, UniProt P01111+P62937, G12C); conditions: NRAS G12C; read-out: NRAS G12C FRET data IC50
Sequence of NRAS G12C (P01111 whole entry G12C): as the sequence (P01111 whole entry Q61K) above, with G12C, K61Q counted along it
Sequence of NRAS G12C (P62937 whole entry): as the sequence (P62937 whole entry) above

Sequence of KRAS G12C (P01116 1-169 isoform P01116-2 G12C): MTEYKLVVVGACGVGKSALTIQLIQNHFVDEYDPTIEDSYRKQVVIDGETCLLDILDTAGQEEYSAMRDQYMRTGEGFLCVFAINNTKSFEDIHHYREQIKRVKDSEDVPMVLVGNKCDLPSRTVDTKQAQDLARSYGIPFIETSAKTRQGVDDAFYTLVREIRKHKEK
Sequence of KRAS G12C (P62937 whole entry): as the sequence (P62937 whole entry) above

Compound: C=CC(=O)N1CC[C@H](C(=O)N(C)[C@H](C(=O)N[C@H]2Cc3cc(O)cc(c3)-c3ccc4c(c3)c(c(-c3c(F)cccc3CCOC)n4CC)CC(C)(C)COC(=O)[C@@H]3CCCN(N3)C2=O)C(C)C)C1 [Example A025]
- IC50 [1]: 100 to 1000 nM
- IC50 [2]: > 10000 nM
- IC50 [3]: 1000 to 10000 nM
- IC50 [4]: 1000 to 10000 nM
- IC50 [5]: 1000 to 10000 nM
- IC50 [6]: 1000 to 10000 nM
- IC50 [7]: 1000 to 10000 nM
- IC50 [8]: 1000 to 10000 nM
- IC50 [9]: > 10000 nM

Compound: C=CC(=O)N1CC[C@H](C(=O)N(C)[C@H](C(=O)N[C@H]2Cc3cc(O)cc(c3)-c3ccc4c(c3)c(c(-c3cc(F)cnc3COC)n4CC)CC(C)(C)COC(=O)[C@@H]3CCCN(N3)C2=O)C(C)C)C1 [Example A082]
- IC50 [1]: 10 to 100 nM
- IC50 [2]: 1000 to 10000 nM
- IC50 [3]: 100 to 1000 nM
- IC50 [4]: 100 to 1000 nM
- IC50 [5]: 100 to 1000 nM
- IC50 [6]: 100 to 1000 nM
- IC50 [7]: 10 to 100 nM
- IC50 [8]: 100 to 1000 nM
- IC50 [9]: 100 to 1000 nM

Compound: C=CC(=O)N1CC[C@H](C(=O)N(C)[C@H](C(=O)N[C@H]2Cc3cc(O)cc(c3)-c3ccc4c(c3)c(c(-c3ccccc3[C@H](C)OC)n4CC)CC(C)(C)COC(=O)[C@@H]3CCCN(N3)C2=O)C(C)C)C1 [Example A022]
- IC50 [1]: 10 to 100 nM
- IC50 [2]: 1000 to 10000 nM
- IC50 [3]: 100 to 1000 nM
- IC50 [4]: 100 to 1000 nM
- IC50 [5]: 100 to 1000 nM
- IC50 [6]: 100 to 1000 nM
- IC50 [7]: 10 to 100 nM
- IC50 [8]: 100 to 1000 nM
- IC50 [9]: 100 to 1000 nM

Compound: C=CC(=O)N1CC[C@H](C(=O)N(C)[C@H](C(=O)N[C@H]2Cc3cc(O)cc(c3)-c3ccc4c(c3)c(c(-c3cnccc3C)n4CC)CC(C)(C)COC(=O)[C@@H]3CCCN(N3)C2=O)C(C)C)C1 [Example A077]
- IC50 [1]: 10 to 100 nM
- IC50 [2]: 1000 to 10000 nM
- IC50 [3]: 100 to 1000 nM
- IC50 [4]: 100 to 1000 nM
- IC50 [5]: 100 to 1000 nM
- IC50 [6]: 100 to 1000 nM
- IC50 [7]: 10 to 100 nM
- IC50 [8]: 100 to 1000 nM
- IC50 [9]: 1000 to 10000 nM

Compound: CCn1c(-c2cccnc2[C@H](C)OC)c2c3cc(ccc31)-c1csc(n1)C[C@H](NC(=O)[C@H](C(C)C)N(C)C(=O)[C@H]1[C@@H]3CNC[C@@H]31)C(=O)N1CCC[C@H](N1)C(=O)OCC(C)(C)C2 (atropisomer, axis not shown) [Example A448]
- IC50 [4]: > 10000 nM
- IC50 [7]: 1000 to 10000 nM

Compound: C=CC(=O)N1CC[C@H](C(=O)N(C)[C@H](C(=O)N[C@H]2Cc3cc(O)cc(c3)-c3ccc4c(c3)c(c(-c3cncnc3)n4CC)CC(C)(C)COC(=O)[C@@H]3CCCN(N3)C2=O)C(C)C)C1 [Example A061]
- IC50 [1]: 100 to 1000 nM
- IC50 [2]: > 10000 nM
- IC50 [3]: 1000 to 10000 nM
- IC50 [4]: 1000 to 10000 nM
- IC50 [5]: 1000 to 10000 nM
- IC50 [6]: 1000 to 10000 nM
- IC50 [7]: 1000 to 10000 nM
- IC50 [8]: 1000 to 10000 nM
- IC50 [9]: > 10000 nM

Compound: C=CC(=O)N1CC[C@H](C(=O)N(C)[C@H](C(=O)N[C@H]2Cc3cc(O)cc(c3)-c3ccc4c(c3)c(c(-c3cccnc3)n4CC)CC(C)(C)COC(=O)[C@@H]3CCCN(N3)C2=O)C(C)C)C1 [Example A045]
- IC50 [1]: 100 to 1000 nM
- IC50 [2]: > 10000 nM
- IC50 [3]: 1000 to 10000 nM
- IC50 [4]: 1000 to 10000 nM
- IC50 [5]: 1000 to 10000 nM
- IC50 [6]: 1000 to 10000 nM
- IC50 [7]: 100 to 1000 nM
- IC50 [8]: 1000 to 10000 nM
- IC50 [9]: > 10000 nM

Compound: C=CC(=O)N1CC[C@H](C(=O)N(C)[C@H](C(=O)N[C@H]2Cc3cc(O)cc(c3)-c3ccc4c(c3)c(c(-c3cncc(COC)c3)n4CC)CC(C)(C)COC(=O)[C@@H]3CCCN(N3)C2=O)C(C)C)C1 [Example A083]
- IC50 [1]: 10 to 100 nM
- IC50 [2]: > 10000 nM
- IC50 [3]: 100 to 1000 nM
- IC50 [4]: 1000 to 10000 nM
- IC50 [5]: 1000 to 10000 nM
- IC50 [6]: 1000 to 10000 nM
- IC50 [7]: 100 to 1000 nM
- IC50 [8]: 1000 to 10000 nM
- IC50 [9]: 1000 to 10000 nM

Compound: CCn1c(-c2cccnc2[C@H](C)OC)c2c3cc(ccc31)-c1csc(n1)C[C@H](NC(=O)[C@H](C(C)C)N(C)C(=O)N1CC3(CN(C)C3)C1)C(=O)N1CCC[C@H](N1)C(=O)OCC(C)(C)C2 (atropisomer, axis not shown) [Example A268]
- IC50 [7]: 10 to 100 nM
- IC50 [8]: 10 to 100 nM

Compound: C=CC(=O)N1CC[C@H](C(=O)N(C)[C@H](C(=O)N[C@H]2Cc3cc(O)cc(c3)-c3ccc4c(c3)c(c(-c3cccnc3)n4C(C)(C)C#N)CC(C)(C)COC(=O)[C@@H]3CCCN(N3)C2=O)C(C)C)C1 [Example A074]
- IC50 [5]: 100 to 1000 nM
- IC50 [7]: 100 to 1000 nM
- IC50 [9]: 1000 to 10000 nM

Compound: C=CC(=O)N1CC[C@H](C(=O)N(C)[C@H](C(=O)N[C@H]2Cc3cc(O)cc(c3)-c3ccc4c(c3)c(c(-c3nccnc3COC)n4CC)CC(C)(C)COC(=O)[C@@H]3CCCN(N3)C2=O)C(C)C)C1 [Example A085]
- IC50 [1]: 1000 to 10000 nM
- IC50 [2]: > 10000 nM
- IC50 [3]: > 10000 nM
- IC50 [4]: > 10000 nM
- IC50 [5]: > 10000 nM
- IC50 [6]: > 10000 nM
- IC50 [7]: 1000 to 10000 nM
- IC50 [8]: > 10000 nM
- IC50 [9]: > 10000 nM

Compound: C=CC(=O)N1CC[C@H](C(=O)N(C)[C@H](C(=O)N[C@H]2Cc3cc(O)cc(c3)-c3ccc4c(c3)c(c(-c3ccncc3)n4C(C)(C)C#N)CC(C)(C)COC(=O)[C@@H]3CCCN(N3)C2=O)C(C)C)C1 [Example A086]
- IC50 [1]: 10 to 100 nM
- IC50 [2]: 1000 to 10000 nM
- IC50 [3]: 100 to 1000 nM
- IC50 [4]: 100 to 1000 nM
- IC50 [5]: 100 to 1000 nM
- IC50 [6]: 1000 to 10000 nM
- IC50 [7]: 100 to 1000 nM
- IC50 [8]: 100 to 1000 nM
- IC50 [9]: 1000 to 10000 nM

Compound: C=CC(=O)N1CC[C@H](C(=O)N(C)[C@H](C(=O)N[C@H]2Cc3cc(O)cc(c3)-c3cc(F)c4c(c3)c(c(-c3ccccc3CCOC)n4CC)CC(C)(C)COC(=O)[C@@H]3CCCN(N3)C2=O)C(C)C)C1 [Example A053]
- IC50 [1]: 100 to 1000 nM
- IC50 [2]: > 10000 nM
- IC50 [3]: 1000 to 10000 nM and > 10000 nM
- IC50 [4]: > 10000 nM
- IC50 [5]: > 10000 nM
- IC50 [6]: > 10000 nM
- IC50 [7]: 1000 to 10000 nM
- IC50 [8]: > 10000 nM
- IC50 [9]: > 10000 nM

Compound: C=CC(=O)N1CC[C@H](C(=O)N(C)[C@H](C(=O)N[C@H]2Cc3cc(O)cc(c3)-c3ccc4c(c3)c(c(-c3c(CCOC)cccc3OC)n4CC)CC(C)(C)COC(=O)[C@@H]3CCCN(N3)C2=O)C(C)C)C1 [Example A080]
- IC50 [1]: 100 to 1000 nM
- IC50 [2]: > 10000 nM
- IC50 [3]: > 10000 nM
- IC50 [4]: 1000 to 10000 nM
- IC50 [5]: > 10000 nM
- IC50 [6]: > 10000 nM
- IC50 [7]: 1000 to 10000 nM
- IC50 [8]: 1000 to 10000 nM
- IC50 [9]: > 10000 nM

Compound: CCn1c(-c2cccnc2[C@H](C)OC)c2c3cc(ccc31)-c1cccc(c1)C[C@H](NC(=O)[C@H](C(C)C)N(C)C(=O)N1CCC13CN(C(=O)C#CC(C)(C)N(C)C)C3)C(=O)N1CCC[C@H](N1)C(=O)OCC(C)(C)C2 (atropisomer, axis not shown) [Example A717]
- IC50 [1]: 100 to 1000 nM
- IC50 [10]: 1000 to 10000 nM
- IC50 [11]: 100 to 1000 nM
- IC50 [7]: 100 to 1000 nM

Source: patent US20230233569A1 (Revolution Medicines, Inc., priority 2020, published 2023)
